Laboratory results from patent publication CN116323625A, “杂环类衍生物、其制备方法及其医药上的用途” (Zhejiang Hisun Pharmaceutical Co Ltd, priority 2021, dated 2023).

Biological target: T1, KRAS G12D:RAF1 protein interaction [KRAS G12D:RAF1蛋白相互作用] (Homo sapiens, UniProt P01116, G12D)
T1 construct: purchased Cisbio 63ADK000CB21PEG
Experiment: Inhibition of the KRAS G12D:RAF1 protein interaction (TR-FRET binding assay)
Details: in vitro, 10000nM-0.1nM, 4 h at room temperature

T1 sequence (P01116 1-188 isoform P01116-2 G12D): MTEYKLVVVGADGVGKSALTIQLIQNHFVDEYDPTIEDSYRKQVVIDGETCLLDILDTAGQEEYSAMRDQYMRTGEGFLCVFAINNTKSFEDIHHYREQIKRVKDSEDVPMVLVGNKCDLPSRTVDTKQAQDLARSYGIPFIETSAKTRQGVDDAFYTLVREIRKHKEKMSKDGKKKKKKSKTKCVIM

`O=C([C@H]1CCCN1)N1C2CCC1CN(c1nc(OC[C@@]34CCCN3C[C@H](F)C4)nc3c(F)c(-c4cc(O)cc5cccc(F)c45)ncc13)C2` [实施例3, 4-(8-(D-prolyl)-3,8-diazabicyclo[3.2.1]octan-3-yl)-8-fluoro-7-(8-fluoro-3-hydroxynaphthalen-1-yl)-2-(((2R,7aS)-2-fluorotetrahydro-1H-pyrrolizin-7a(5H)-yl)methoxy)pyrido[4,3-d]pyrimidine] was tested, and the IC50 was 114 nM.
`OCCN1C2CCC1CN(c1nc(OC[C@@]34CCCN3C[C@H](F)C4)nc3c(F)c(-c4cc(O)cc5cccc(F)c45)ncc13)C2` [实施例2, 5-fluoro-4-(8-fluoro-2-(((2R,7aS)-2-fluorotetrahydro-1H-pyrrolizin-7a(5H)-yl)methoxy)-4-(8-(2-hydroxyethyl)-3,8-diazabicyclo[3.2.1]octan-3-yl)pyrido[4,3-d]pyrimidin-7-yl)naphthalen-2-ol] was tested, and the IC50 was 189 nM.
